Where a name gives a salt, the structure may show the parent alone.
target: T1, guinea-pig B2 receptor (Cavia porcellus, UniProt O70526); experiment: Inhibition of [3H]-bradykinin binding to guinea-pig ileum membranes; details: test compound at 10^-6 M, [3H]-bradykinin 120 pM, 90 min at 20° C., read-out: Activity (percentage inhibition of the binding of [3H]-bradykinin)
T1 construct: Ileum segments are isolated from male guinea-pigs; tissue Iffa Credo, l'Arbresle, France (animals); host or cells: ileum membranes of male Dunkin-Hartley guinea-pigs
T1 sequence (O70526 1-372): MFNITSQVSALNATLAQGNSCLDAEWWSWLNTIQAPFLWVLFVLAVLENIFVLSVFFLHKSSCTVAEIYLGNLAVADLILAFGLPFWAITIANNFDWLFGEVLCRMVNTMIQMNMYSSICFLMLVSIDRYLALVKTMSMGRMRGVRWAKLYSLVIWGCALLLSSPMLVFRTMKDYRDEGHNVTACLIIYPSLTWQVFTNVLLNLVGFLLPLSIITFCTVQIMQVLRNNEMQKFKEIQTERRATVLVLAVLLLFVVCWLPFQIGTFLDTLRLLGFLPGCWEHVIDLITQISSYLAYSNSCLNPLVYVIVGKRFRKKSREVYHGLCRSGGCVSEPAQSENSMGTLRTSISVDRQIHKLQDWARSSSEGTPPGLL
Procedure: The following pharmacological test is used: Ileum segments are isolated from male guinea-pigs [of the Dunkin-Hartley strain (Iffa Credo, l'Arbresle, France)] and ground in the following TES buffer: TES 25 mM, 1,10-phenanthroline 1 mM (pH 6.8), bacitracin 140 μg/ml, BSA 1 g/l. The membranes are then isolated by centrifugation (18,000 rpm; 20 min; 4° C.). The binding studies are carried out in this TES buffer using [^3 H]-bradykinin (120 pM) and 50 μg of membrane protein per test (final volume 500 μl) with an equilibrium time of 90 min at 20° C. The percentage inhibition of the binding of [^3 H]-bradykinin is then determined in the presence of one of the test compounds according to the invention at a concentration of 10^-6 M.
The results obtained from these tests (shown as "activity") are collated in Table I below with reference to the Examples given in the description. In this Table, Pos indicates the position of the amidine group on the aromatic (or heteroaromatic) ring relative to the group B; in the "Salt" column, Ch1 denotes that the compound is in the form of the hydrochloric acid salt and Ms denotes that it is in the form of the methanesulfonic acid salt.

SMILES	inhibition at 1 µM [%]
Cc1cc(C)c2cccc(OCc3c(Cl)ccc(S(=O)(=O)N4CCC[C@H]4C(=O)NCCNC(=O)c4ccc(C(=N)N)cc4)c3Cl)c2n1 [Example 2, 1-[[3-[(2,4-Dimethylquinolin-8-yl)oxymethyl]-2,4-dichlorophenyl]sulfonyl]-N-[2-[[4-(aminoiminomethyl)phenyl]carbonylamino]ethyl]-2(S)-pyrrolidine-carboxamide dihydrochloride]	92
Cc1cc(C)c2cccc(OCc3c(Cl)ccc(S(=O)(=O)N4CCC[C@H]4C(=O)NCCNC(=O)COc4ccc(C(=N)N)cc4)c3Cl)c2n1 [Example 4, 1-[[3-[(2,4-Dimethylquinolin-8-yl)oxymethyl]-2,4-dichlorophenyl]sulfonyl]-N-[2-[[2-[4(aminoiminomethyl)phenoxy]-1-oxoethyl]amino]ethyl]-2(S)-pyrrolidinecarboxamide dihydrochloride]	95.5
Cc1cc(C)c2cccc(OCc3c(Cl)ccc(S(=O)(=O)N4CCC[C@H]4C(=O)NCCCN(C)C(=O)c4ccc(C(=N)N)cc4)c3Cl)c2n1 [Example 16, 1-[[3-[(2,4-Dimethylquinolin-8-yl)oxymethyl]-2,4-dichlorophenyl]sulfonyl]-N-[3-[[methyl]-[[4(aminoiminomethyl)phenyl]carbonyl]amino]propyl]-2(S)-pyrrolidinecarboxamide dihydrochloride]	100
CCN(CCCNC(=O)[C@@H]1CCCN1S(=O)(=O)c1ccc(Cl)c(COc2cccc3c(C)cc(C)nc23)c1Cl)C(=O)c1ccc(C(=N)N)cc1 [Example 14, 1-[[3-[(2,4-Dimethylquinolin-8-yl)oxymethyl]-2,4-dichlorophenyl]sulfonyl]-N-3-[[ethyl]-[[4-(aminoiminomethyl)phenyl]carbonyl]amino]propyl]-2(S)-pyrrolidine carboxamide dihydrochloride]	97
Cc1cc(C)c2cccc(OCc3c(Cl)ccc(S(=O)(=O)N4CCC[C@H]4C(=O)NCCCCCNC(=O)c4ccc(C(=N)N)cc4)c3Cl)c2n1 [Example 21, 1-[[3-[(2,4-Dimethylquinolin-8-yl)oxymethyl]-2,4-dichlorophenyl]sulfonyl]-N-[5-[[4-(aminoiminomethyl)phenyl]carbonylamino]pentyl]-2(S)-pyrrolidinecarboxamide dihydrochloride]	100

Results, then the compound that gave them:

inhibition at 1 µM [%]	SMILES
99	Cc1cc(C)c2cccc(OCc3c(Cl)ccc(S(=O)(=O)N4CCC[C@H]4C(=O)NCCCNC(=O)c4ccc(C(=N)N)cc4)c3Cl)c2n1 [Example 6, 1-[[3-[(2,4-Dimethylquinolin-8-yl)oxymethyl]-2,4-dichlorophenyl]sulfonyl]-N-[3-[[4-(aminoiminomethyl)phenyl]carbonylamino]propyl]-2(S)-pyrrolidine-carboxamide dihydrochloride]
97.5	Cc1cc(C)c2cccc(OCc3c(Cl)ccc(S(=O)(=O)N4CCC[C@H]4C(=O)NCCCNC(=O)Cc4ccc(C(=N)N)cc4)c3Cl)c2n1 [Example 8, 1-[[3-[(2,4-Dimethylquinolin-8-yl)oxymethyl]-2,4-dichlorophenyl]sulfonyl]-N-[-[[2-[4(aminoiminomethyl)phenyl]-1-oxoethyl]amino]propyl]-2(S)-pyrrolidinecarboxamide dihydrochloride]
98.8	Cc1cc(C)c2cccc(OCc3c(Cl)ccc(S(=O)(=O)N4CCC[C@H]4C(=O)NCCCNC(=O)COc4ccc(C(=N)N)cc4)c3Cl)c2n1 [Example 10, 1-[[3-[(2,4-Dimethylquinolin-8-yl)oxymethyl]-2,4-dichlorophenyl]sulfonyl]-N-[3-[[2-[4-(aminoiminomethyl)phenoxy]-1-oxoethyl]amino]propyl]-2(S)-pyrrolidinecarboxamide dihydrochloride]
98	Cc1cc(C)c2cccc(OCc3c(Cl)ccc(S(=O)(=O)N4CCC[C@H]4C(=O)NCCCCNC(=O)c4ccc(C(=N)N)cc4)c3Cl)c2n1 [Example 19, 1-[[3-[(2,4-Dimethylquinolin-8-yloxymethyl]-2,4-dichlorophenyl]sulfonyl]-N-[4-[[4-(aminoiminomethyl)phenyl]carbonylamino]butyl]-2(S)-pyrrolidinecarboxamidedihydrochloride]

— patent US6063791A, “N-benzenesulfonyl-L-proline derivatives, method for preparing and therapeutic use” (Fournier Industrie et Sante, priority 1996, dated 2000)
